Laboratory results published in US4093717A, “Antimicrobial compositions” (University of Mississippi, priority 1975, dated 1978).
≈ marks a conversion by molar mass, not a printed value. Where a name gives a salt, the structure may show the parent alone. Read-outs that look alike come from different tables or passages of the source.

Columns and labels:
[1] = system: S. aureus; assay: two-fold serial dilution assay (MIC), S. aureus; format: cell-based; settings: Staphylococcus aureus; 24 hours; read-out: Minimum Inhibitory Concentration, S. aureus
Excerpt: (§1) Quantitive assay of antimicrobial activity of the inventive compositions against selected test organisms was made using a two-fold serial dilution in Eugonbroth or Mycophil broth. The concentration of pure alkaloids in the initial dilution tube was 50 mcg/ml. Streptomycin sulfate (Nutrional Biochemical) and amphotericin B (Calbiochem "A" grade) at the same concentrations as above were used as standard antibiotics for comparison with the activities of the alkaloids against bacteria and yeast species, respectively. Cultures used in the serial dilution assay included S. aureus, B. subtilis, M. smegmatis, C. albicans, and S. cerevisiae. Readings were taken after incubation times of 24 hours for all organisms except M. smegmatis, which was read at 72 hours. The concentration mcg/ml of the tube of highest dilution which was free from growth was recorded as the minimal inhibitory concentration in Table 3.

[2] = system: B. subtilis; assay: two-fold serial dilution assay (MIC), B. subtilis; format: cell-based; settings: Bacillus subtilis, read-out: Minimum Inhibitory Concentration, R. Subtilis
Excerpt: as §1

[3] = system: M. smegmatis; assay: two-fold serial dilution assay (MIC), M. smegmatis; format: cell-based, Mycobacterium smegmatis; settings: Mycolicibacterium smegmatis, read-out: Minimum Inhibitory Concentration, M. Smegmatis
Excerpt: as §1

[4] = system: Staphylococcus aureus ATCC 6538; assay: agar well diffusion assay, S. aureus; format: cell-based; settings: read-out: width of the clear zone of inhibition, S. aureus
Experimental: (§2) Bacterial test organisms were cultured in Eugonager and Eugonbroth (BBL), and fungi and yeasts were cultured in Mycophil (BBL) agar and broth. Antimicrobial activity was recorded as the width (in millimeters) of the clear zone of inhibition surrounding the agar well.
(§3) Qualitative evaluation of antimicrobial activity of the inventive extracts, fractions, and pure compounds was accomplished using an agar well diffusion assay. As set out hereinbefore, the inventive compositions were tested for activity against the following microorganisms: Staphylococcus aureus ATCC 6538; Escherichia coli ATCC 10536; Mycobacterium smegmatis ATCC 607; Pseudomonas aeruginosa ATCC 15442; Candida albicans ATCC 10321; Saccharomyces cerevisiae ATCC 9763; and Asperigillus niger ATCC 16888. In addition, the compounds of the preferred embodiments were also tested against Bacillus subtilis ATCC 6633. Bacterial test organisms were cultured in Eugonagar and Eugonbroth (BBL), and fungi and yeasts were cultured in Mycophil (BBL) agar and broth.
(§4) Plates for assay were prepared by uniformly seeding sterily, partially cooled, molten agar with dilutions of test organisms grown in broth or suspensions of conidia produced on agar slants (A. niger). The seeded agar medium was dispensed into 100 × 15 mm sterile petri dishes (15 ml per dish). Cylindrical plugs were removed from the solidified agar plates, using a sterile cork borer, to produce wells having a diameter of approximately 11 mm. One hundred microliters of a solution or suspension of an extract, fraction, or pure compound was added to each well. The extracts and fractions were tested as solutions or suspensions in a concentration of 20 mg/ml; pure compounds were tested at 1 mg/ml. When solvents other than water were required to dissolve extracts or compounds, solvent blanks were run against each test organism.
(§5) Plates prepared as described above were incubated as follows: Bacteria were grown at 37° C. for 24 hours, with the exception of M. smegmatis, which grows more slowly and requires incubation at 37° C. for 48 hours, before reading. Fungi or yeast were incubated at 25° C. for 24 hours, before growth was evident.
(§6) Antimicrobial activity was recorded as the width (in mm) of the clear zone of inhibition surrounding the agar well.

[5] = system: Bacillus subtilis ATCC 6633; assay: agar well diffusion assay, B. subtilis; format: cell-based; settings: read-out: width of the clear zone of inhibition, B. subtilis
Experimental: as §2, §3, §4, §5, §6

[6] = system: Mycobacterium smegmatis ATCC 607; assay: agar well diffusion assay, M. smegmatis; format: cell-based; settings: Mycolicibacterium smegmatis, read-out: width of the clear zone of inhibition, M. smegmatis
Experimental: as §2, §3, §4, §5, §6

[7] = system: Candida albicans; assay: agar well diffusion assay, C. albicans; format: cell-based; settings: read-out: width of the clear zone of inhibition, C. Albicans
Experimental: as §2, §3, §4, §5, §6

[8] = system: Saccharomyces cerevisiae ATCC 9763; assay: agar well diffusion assay, S. cerevisiae; format: cell-based; settings: read-out: width of the clear zone of inhibition, S. cerevisiae
Experimental: as §2, §3, §4, §5, §6

[9] = system: Asperigillus niger ATCC 16888; assay: agar well diffusion assay, A. niger; format: cell-based; settings: Aspergillus niger, read-out: width of the clear zone of inhibition, A. niger
Experimental: as §2
as §3, with “broth. […]” for “broth.”
Plates prepared as described above were incubated as follows: Bacteria were grown at 37° C. for 24 hours, with the exception of M. smegmatis, which grows more slowly and requires incubation at 37° C. for 48 hours, before reading. […]
as §6

[10] = system: C. albicans; assay: two-fold serial dilution assay (MIC), C. albicans; format: cell-based, Candida albicans; settings: for MIC: Candida albicans, read-out: Minimum Inhibitory Concentration, C. Albicans
Excerpt: as §1

[11] = system: S. cerevisiae; assay: two-fold serial dilution assay (MIC), S. cerevisiae; format: cell-based; settings: Saccharomyces cerevisiae, read-out: Minimum Inhibitory Concentration, S. cerevisiae
Excerpt: as §1

[12] = system: test organisms; assay: qualitative antimicrobial activity of extracts, fractions and compounds; format: cell-based; settings: text statement on extracts, fractions, compounds
Experimental: Qualitative evaluation of antimicrobial activity of the inventive extracts, fractions, and pure compounds was accomplished using an agar well diffusion assay. As set out hereinbefore, the inventive compositions were tested for activity against the following microorganisms: Staphylococcus aureus ATCC 6538; Escherichia coli ATCC 10536; Mycobacterium smegmatis ATCC 607; Pseudomonas aeruginosa ATCC 15442; Candida albicans ATCC 10321; Saccharomyces cerevisiae ATCC 9763; and Asperigillus niger ATCC 16888. […] Bacterial test organisms were cultured in Eugonagar and Eugonbroth (BBL), and fungi and yeasts were cultured in Mycophil (BBL) agar and broth.

[13] = system: S. aureus, B. subtilis, M. smegmatis, C. albicans, and S. cerevisiae; assay: two-fold serial dilution assay, activity overall against bacteria and yeasts; format: cell-based; settings: from the data in Table 3
Excerpt: as §1

[14] = ATCC6538, 37° C., 24 hours, extracts and fractions 20 mg/ml, pure compounds 1 mg/ml, 100 microliters per well
[15] = ATCC6633, 37° C., 24 hours, pure compounds 1 mg/ml, 100 microliters per well
[16] = ATCC607, 37° C., 48 hours, extracts and fractions 20 mg/ml, pure compounds 1 mg/ml, 100 microliters per well
[17] = 25° C., 24 hours, extracts and fractions 20 mg/ml, pure compounds 1 mg/ml, 100 microliters per well
[18] = ATCC9763, 25° C., 24 hours, pure compounds 1 mg/ml, 100 microliters per well

Structure (SMILES): [H]/N=C(/N)N[C@H]1[C@H](O)[C@@H](O)[C@H](O[C@@H]2O[C@@H](C)[C@](O)(C=O)[C@H]2O[C@@H]2O[C@@H](CO)[C@H](O)[C@@H](O)[C@@H]2NC)[C@@H](N/C(N)=N\[H])[C@@H]1O [streptomycin sulfate, reference compound]
- MIC [1]: 3.1 µg/mL
- MIC ([2]; 24 h): 1.56 µg/mL
- MIC ([3]; 72 h): 0.78 µg/mL

Structure (SMILES): O=C1c2ccccc2-c2c3c(cc4ccnc1c24)OCO3 [liriodenine]
- zone of inhibition at 1000 µg/mL ([4]; ATCC6538, 24 h): 5 mm
- zone of inhibition at 1000 µg/mL ([5]; ATCC6633, 24 h): 8 mm
- zone of inhibition at 1000 µg/mL ([6]; ATCC607, 48 h): 11 mm
- zone of inhibition at 1000 µg/mL ([7]; 24 h): 3 mm
- zone of inhibition at 1000 µg/mL ([8]; ATCC9763, 24 h): 5 mm
- zone of inhibition at 1000 µg/mL ([9]; ATCC16888, 24 h): 11 mm
- MIC [1]: 3.1 µg/mL (≈ 11.3 µM)
- MIC ([2]; 24 h): 0.39 µg/mL (≈ 1.42 µM)
- MIC ([3]; 72 h): 1.56 µg/mL (≈ 5.67 µM)
- MIC ([10]; 24 h): 6.2 µg/mL (≈ 22.5 µM)
- MIC ([11]; 24 h): 6.2 µg/mL (≈ 22.5 µM)
- antimicrobial activity (in words) [12]: exhibited antimicrobial activity
- antimicrobial activity (in words) ([12]; listed as Liriodenine): contained all of the antimicrobial activity in this fraction
- in vitro activity compared with standard antibiotics or other alkaloids [13]: in vitro activity comparable to that of streptomycin sulfate and amphotericin B

Structure (SMILES): C[C@@H]1[C@H](O)[C@@H](C)/C=C/C=C/C=C/C=C/C=C/C=C/C=C/[C@H](O[C@@H]2O[C@H](C)[C@@H](O)[C@H](N)[C@@H]2O)C[C@@H]2O[C@](O)(C[C@@H](O)C[C@@H](O)[C@H](O)CC[C@@H](O)C[C@@H](O)CC(=O)O[C@H]1C)C[C@H](O)[C@H]2C(=O)O [amphotocericin B, amphotericin B, reference compound]
- MIC ([10]; 24 h): 0.78 µg/mL (≈ 0.844 µM)
- MIC ([11]; 24 h): 0.78 µg/mL (≈ 0.844 µM)

Structure (SMILES): COc1cc2c(cc1OC)-c1c(OC)c(OC)cc3cc[n+](C)c(c13)C2=O [oxoglaucine methiodide]
- zone of inhibition at 1000 µg/mL [4, 14]: 9 mm
- zone of inhibition at 1000 µg/mL [5, 15]: 9 mm
- zone of inhibition at 1000 µg/mL [6, 16]: 10 mm
- zone of inhibition at 1000 µg/mL [7, 17]: 10 mm
- zone of inhibition at 1000 µg/mL [8, 18]: 11 mm
- MIC [1]: 25 µg/mL
- MIC ([2]; 24 hours): 25 µg/mL
- MIC ([3]; 72 hours): 25 µg/mL
- MIC ([10]; 24 hours): 1.56 µg/mL
- activity against C. albicans (in words) ([10]; from the data in Table 3): particularly active against C. albicans
- MIC ([11]; 24 hours): 25 µg/mL

Structure (SMILES): C[n+]1ccc2cc3c(c4c2c1C(=O)c1ccccc1-4)OCO3 [liriodenine methiodide]
- zone of inhibition at 1000 µg/mL [4, 14]: 6 mm
- zone of inhibition at 1000 µg/mL [5, 15]: 6 mm
- zone of inhibition at 1000 µg/mL [6, 16]: 14 mm
- zone of inhibition at 1000 µg/mL [7, 17]: 17 mm
- zone of inhibition at 1000 µg/mL [8, 18]: 15 mm
- zone of inhibition at 1000 µg/mL ([9]; ATCC16888, 25° C., 24 hours, extracts and fractions 20 mg/ml, pure compounds 1 mg/ml, 100 microliters per well): 4 mm
- MIC [1]: 6.2 µg/mL
- MIC ([2]; 24 hours): 3.1 µg/mL
- MIC ([3]; 72 hours): 3.1 µg/mL
- MIC ([10]; 24 hours): 0.78 µg/mL
- MIC ([11]; 24 hours): 3.1 µg/mL
- in vitro activity compared with standard antibiotics or other alkaloids [13]: in vitro activity comparable to that of streptomycin sulfate and amphotericin B

Structure (SMILES): COc1cc2cc3c4c(cc(OC)c(OC)c4c2cc1OC)CCN3C [dehydroglaucine]
- zone of inhibition at 1000 µg/mL ([4]; ATCC6538, 24 h): 4 mm
- zone of inhibition at 1000 µg/mL ([5]; ATCC6633, 24 h): 7 mm
- zone of inhibition at 1000 µg/mL ([6]; ATCC607, 48 h): 8 mm
- zone of inhibition at 1000 µg/mL ([7]; 24 h): 6 mm
- zone of inhibition at 1000 µg/mL ([8]; ATCC9763, 24 h): 6 mm
- MIC [1]: 25 µg/mL (≈ 70.7 µM)
- MIC ([2]; 24 h): 25 µg/mL (≈ 70.7 µM)
- MIC ([3]; 72 h): 25 µg/mL (≈ 70.7 µM)
- MIC ([10]; 24 h): 25 µg/mL (≈ 70.7 µM)
- MIC ([11]; 24 h): 50 µg/mL (≈ 141 µM)
- antimicrobial activity (in words) [12]: exhibited antimicrobial activity
- antimicrobial activity (in words) ([12]; listed as Dehydroglaucine): exhibit all of the antimicrobial activity in that Fraction
